Test results as given in PubChem BioAssay AID1199 (EPA DSSTox, 2008).
Activity calls are given as the source filed them.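 Rule for the calls: active = a tumour-causing dose and a tumour site recorded for mice in at least one sex group; inconclusive = only government mouse studies exist and were judged inadequate; inactive = mouse studies exist but none gave tumours.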

Test system: mouse carcinogenicity bioassay, TD50 from CPDB
Assay: DSSTox (CPDBAS) Carcinogenic Potency Database Summary Mouse Bioassay Results
In short: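 Values are TD50 carcinogenic potencies from mouse chronic bioassays, taking the most positive result for each sex-species. Sources are published literature and NCI/NTP studies; target sites reflect author-reported positive findings.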

[1] = TD50_Mouse_Note: no positive results, TargetSites_Mouse_Female: no positive results
[2] = TD50_Mouse_Note: TD50 is harmonic mean of more than one positive test, TargetSites_Mouse_Female: liver
[3] = TargetSites_Mouse_Female: hematopoietic system
[4] = TD50_Mouse_Note: TD50 is harmonic mean of more than one positive test, TargetSites_Mouse_Female: liver, stomach

Row | Compound | outcome [1] | further results
1 | CCCCN(N)C=O |  | Potency (TD50_Mouse_Note: TD50 is harmonic mean of more than one positive test, TargetSites_Mouse_Female: clitoral gland, lung): 0.166 mmol/kg/day
2 | Oc1ccc2ccccc2c1N=Nc1ccccc1 | inactive; no positive results | 
3 | CC[C@H]1CN2CCc3cc(OC)c(OC)cc3[C@@H]2C[C@@H]1C[C@H]1NCCc2cc(OC)c(OC)cc21 |  | outcome (TD50_Mouse_Note: only experiment is NCI/NTP bioassay inadequate, TargetSites_Mouse_Female: NTP bioassay inadequate): ntp bioassay inadequate
4 | CC(=O)NN |  | Potency (TD50_Mouse_Note: TD50 is harmonic mean of more than one positive test, TargetSites_Mouse_Female: lung): 0.133 mmol/kg/day
5 | COc1ccc([N+](=O)[O-])cc1N |  | Potency (TargetSites_Mouse_Female: liver): 22.1 mmol/kg/day
6 | CC(=O)Nc1ccc(OCC(O)CNC(C)C)cc1 (stereo not given) | inactive; no positive results | 
7 | Brc1cc(Br)c(-c2c(Br)c(Br)c(Br)c(Br)c2Br)c(Br)c1Br |  | Potency [2]: 0.00418 mmol/kg/day
8 | O=C1Nc2ccc(Cl)cc2C(c2ccccc2)=NC1O (stereo not given) |  | Potency (TD50_Mouse_Note: TD50 is harmonic mean of more than one positive test, TargetSites_Mouse_Female: liver, thyroid gland): 0.125 mmol/kg/day
9 | COc1cc(N)ccc1N=Nc1ccccc1 | inactive; no positive results | 
10 | ClC#CCl |  | Potency (TD50_Mouse_Note: TD50 is harmonic mean of more than one positive test, TargetSites_Mouse_Female: harderian gland, kidney): 0.00605 mmol/kg/day
11 | CN(C)C(=S)[S][Pb][S]C(=S)N(C)C | inactive; no positive results | 
12 | CN[C@H]1CC[C@@H](c2ccc(Cl)c(Cl)c2)c2ccccc21 | inactive; no positive results | 
13 | Nc1ccc(N)c2c1C(=O)c1c(N)ccc(N)c1C2=O | inactive; no positive results | 
14 | CC(=O)c1ccc(S(=O)(=O)NC(=O)NC2CCCCC2)cc1 | inactive; no positive results | 
15 | NC1CCCCC1 | inactive; no positive results | 
16 | CCCCC(CC)COC(=O)COc1ccc(Cl)cc1Cl (stereo not given) | inactive; no positive results | 
17 | O=c1cc[nH]c(=S)[nH]1 |  | Potency [2]: 0.429 mmol/kg/day
18 | CCN(CC)C(=O)Nc1ccc(OCC(O)CNC(C)(C)C)c(C(C)=O)c1 (stereo not given) | inactive; no positive results | 
19 | C=CCOC(=O)CC(C)C |  | Potency [3]: 0.442 mmol/kg/day
20 | O=C(c1ccccc1)C(O)c1ccccc1 (stereo not given) | inactive; no positive results | 
21 | c1ccc(-c2ccccc2)cc1 | inactive; no positive results | 
22 | c1ccc(Nc2ccc(Nc3ccccc3)cc2)cc1 | inactive; no positive results | 
23 | Nc1ccc(Oc2ccc(N)cc2)cc1 |  | Potency (TD50_Mouse_Note: TD50 is harmonic mean of more than one positive test, TargetSites_Mouse_Female: harderian gland, liver, thyroid gland): 0.168 mmol/kg/day
24 | CCCc1cc(=O)[nH]c(=S)[nH]1 |  | Potency (TargetSites_Mouse_BothSexes: pituitary gland): 2.4 mmol/kg/day
25 | c1cc(OCC2CO2)cc(OCC2CO2)c1 (stereo not given) |  | Potency (TD50_Mouse_Note: TD50 is harmonic mean of more than one positive test, TargetSites_Mouse_Female: stomach): 0.109 mmol/kg/day

Row | Compound | outcome [1] | further results
26 | C[N+](C)(C)CCO |  | outcome (TD50_Mouse_Note: no positive results): inactive; no positive results
27 | CNC(=S)N(C)C | inactive; no positive results | 
28 | NNc1nc(-c2ccc(N)cc2)cs1 |  | Potency [3]: 0.0548 mmol/kg/day
29 | NC(=O)N/N=C/c1ccc([N+](=O)[O-])o1 |  | Potency (TargetSites_Mouse_Female: ovary): 0.155 mmol/kg/day
30 | NC(=O)c1cnccn1 |  | outcome (TD50_Mouse_Note: no positive results, TargetSites_Mouse_Female: NTP bioassay inadequate): inactive; no positive results
31 | CCc1ccccc1 |  | Potency [2]: 15.1 mmol/kg/day
32 | BrCCBr |  | Potency (TD50_Mouse_Note: TD50 is harmonic mean of more than one positive test, greater than ten-fold variation among TD50 values for positive res, TargetSites_Mouse_Female: esophagus, lung, mammary gland, nasal cavity, stomach, subcutaneous tissue, vascular system): 0.0397 mmol/kg/day
33 | c1ccc2sc(SN3CCOCC3)nc2c1 | inactive; no positive results | 
34 | CCCCNC(=O)NS(=O)(=O)c1ccc(C)cc1 | inactive; no positive results | 
35 | C=C(C)[C@H]1CC=C(C)CC1 | inactive; no positive results | 
36 | BrC(Br)Br | inactive; no positive results | 
37 | S=C([S-])NCCNC(=S)[S-].[Zn+2] | inactive; no positive results | 
38 | CC(=O)O[C@]1(C(C)=O)CC[C@H]2[C@@H]3C=C(Cl)C4=CC(=O)[C@@H]5C[C@@H]5[C@]4(C)[C@H]3CC[C@@]21C |  | Potency [4]: 0.0525 mmol/kg/day
39 | Cn1c(N)nc2c3cccnc3ccc21 |  | Potency (TD50_Mouse_Note: TD50 is harmonic mean of more than one positive test, TargetSites_Mouse_Female: liver, lung, stomach): 0.0989 mmol/kg/day
40 | [Cd+2].[Cl-].[Cl-] | inactive | 
41 | ClCOCCl |  | Potency (TD50_Mouse_Note: TD50 is harmonic mean of more than one positive test, TargetSites_Mouse_Female: peritoneal cavity): 0.00158 mmol/kg/day
42 | ClC/C=C/CCl |  | Potency (TD50_Mouse_Note: positive test results only by intraperitoneal or intravenous injection, TargetSites_Mouse_Female: peritoneal cavity): 0.0122 mmol/kg/day
43 | O=C1O[C@H]([C@@H](O)CO)C(O)=C1O | inactive; no positive results | 
44 | CN(C)CCOC(c1ccccc1)c1ccccc1 | inactive; no positive results | 
45 | O=C1O[C@H]([C@H](O)CO)C(O)=C1O | inactive; no positive results | 
46 | C=CCOc1ccccc1OCC(O)CNC(C)C (stereo not given) | inactive; no positive results | 
47 | C/C=C/Cl |  | Potency (TargetSites_Mouse_Female: stomach): 0.066 mmol/kg/day
48 | ClC(Cl)C(Cl)(Cl)Cl |  | Potency [2]: 0.283 mmol/kg/day
49 | Cc1ccc2ccccc2c1 | inactive; no positive results | 
50 | CC(=O)OCc1ccccc1 |  | Potency [4]: 9.59 mmol/kg/day
